{
  "source": "the supplement of paper PMC10307832",
  "test_in_all_cases": "relative viability (nuclei count vs DMSO), 5 days (fraction); higher = more cells survive",
  "key": {"Dactolisib + Pemetrexed": {"compound": "Cn1c(=O)n(-c2ccc(C(C)(C)C#N)cc2)c2c3cc(-c4cnc5ccccc5c4)ccc3ncc21 [Dactolisib] + Nc1nc2[nH]cc(CCc3ccc(C(=O)N[C@@H](CCC(=O)O)C(=O)O)cc3)c2c(=O)[nH]1 [Pemetrexed] (partner 0.2 µM)", "procedure,_shortened": "(§1)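 The day after seeding in 1536-well plates, lung cancer cell lines were treated by pin tool with a single drug, or with a fixed anchor-drug dose together with five library-drug doses (not always all listed) in √10 steps. After 5 days, a combined fix-and-stain solution (final 0.05% Triton X-100, 1% formaldehyde, 1 ug/ml Hoechst) was added. Nuclei counted on 4× images gave relative viability as treated counts over vehicle counts, reported as the median of duplicate plates.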"}, "Dactolisib + OSI-027": {"compound": "Cn1c(=O)n(-c2ccc(C(C)(C)C#N)cc2)c2c3cc(-c4cnc5ccccc5c4)ccc3ncc21 [Dactolisib] + COc1cccc2cc(-c3nc([C@H]4CC[C@H](C(=O)O)CC4)n4ncnc(N)c34)[nH]c12 [OSI-027] (partner 0.5 µM)", "procedure,_shortened": "as §1"}, "Dactolisib + Lapatinib": {"compound": "Cn1c(=O)n(-c2ccc(C(C)(C)C#N)cc2)c2c3cc(-c4cnc5ccccc5c4)ccc3ncc21 [Dactolisib] + CS(=O)(=O)CCNCc1ccc(-c2ccc3ncnc(Nc4ccc(OCc5cccc(F)c5)c(Cl)c4)c3c2)o1 [Lapatinib] (partner 2 µM)", "procedure,_shortened": "as §1"}, "AZ505 + Foretinib": {"compound": "C1CCC(CC1)N(CCNCCC2=C3C(=C(C=C2)O)NC(=O)CO3)C(=O)CCNCCC4=CC(=C(C=C4)Cl)Cl [AZ505] + COc1cc2c(Oc3ccc(NC(=O)C4(C(=O)Nc5ccc(F)cc5)CC4)cc3F)ccnc2cc1OCCCN1CCOCC1 [Foretinib] (partner 0.25 µM)", "procedure,_shortened": "as §1"}},
  "data": [
    {"cell line": "EMC-BAC-2", "values": [
      {"measurement": "relative viability", "setting": "Dactolisib + Pemetrexed; first compound 0.002 µM", "result": 0.424},
      {"measurement": "relative viability", "setting": "Dactolisib + Pemetrexed; first compound 0.006325 µM", "result": 0.39},
      {"measurement": "relative viability", "setting": "Dactolisib + Pemetrexed; first compound 0.02 µM", "result": 0.448},
      {"measurement": "relative viability", "setting": "Dactolisib + Pemetrexed; first compound 0.06325 µM", "result": 0.456},
      {"measurement": "relative viability", "setting": "Dactolisib + Pemetrexed; first compound 0.2 µM", "result": 0.416},
      {"measurement": "relative viability", "setting": "Dactolisib + OSI-027; first compound 0.002 µM", "result": 0.395},
      {"measurement": "relative viability", "setting": "Dactolisib + OSI-027; first compound 0.006325 µM", "result": 0.439},
      {"measurement": "relative viability", "setting": "Dactolisib + OSI-027; first compound 0.02 µM", "result": 0.405},
      {"measurement": "relative viability", "setting": "Dactolisib + OSI-027; first compound 0.06325 µM", "result": 0.346},
      {"measurement": "relative viability", "setting": "Dactolisib + OSI-027; first compound 0.2 µM", "result": 0.296},
      {"measurement": "relative viability", "setting": "Dactolisib + Lapatinib; first compound 0.002 µM", "result": 0.921},
      {"measurement": "relative viability", "setting": "Dactolisib + Lapatinib; first compound 0.006325 µM", "result": 0.856},
      {"measurement": "relative viability", "setting": "Dactolisib + Lapatinib; first compound 0.02 µM", "result": 0.889},
      {"measurement": "relative viability", "setting": "Dactolisib + Lapatinib; first compound 0.06325 µM", "result": 0.703},
      {"measurement": "relative viability", "setting": "Dactolisib + Lapatinib; first compound 0.2 µM", "result": 0.604},
      {"measurement": "relative viability", "setting": "AZ505 + Foretinib; first compound 0.08 µM", "result": 0.95},
      {"measurement": "relative viability", "setting": "AZ505 + Foretinib; first compound 0.253 µM", "result": 0.99},
      {"measurement": "relative viability", "setting": "AZ505 + Foretinib; first compound 0.8 µM", "result": 0.993},
      {"measurement": "relative viability", "setting": "AZ505 + Foretinib; first compound 2.53 µM", "result": 0.985},
      {"measurement": "relative viability", "setting": "AZ505 + Foretinib; first compound 8 µM", "result": 0.961}
    ]},
    {"cell line": "EPLC-272H", "values": [
      {"measurement": "relative viability", "setting": "Dactolisib + Pemetrexed; first compound 0.002 µM", "result": 0.214},
      {"measurement": "relative viability", "setting": "Dactolisib + Pemetrexed; first compound 0.006325 µM", "result": 0.333},
      {"measurement": "relative viability", "setting": "Dactolisib + Pemetrexed; first compound 0.02 µM", "result": 0.294},
      {"measurement": "relative viability", "setting": "Dactolisib + Pemetrexed; first compound 0.06325 µM", "result": 0.36},
      {"measurement": "relative viability", "setting": "Dactolisib + Pemetrexed; first compound 0.2 µM", "result": 0.314},
      {"measurement": "relative viability", "setting": "Dactolisib + OSI-027; first compound 0.002 µM", "result": 0.34},
      {"measurement": "relative viability", "setting": "Dactolisib + OSI-027; first compound 0.006325 µM", "result": 0.288},
      {"measurement": "relative viability", "setting": "Dactolisib + OSI-027; first compound 0.02 µM", "result": 0.356},
      {"measurement": "relative viability", "setting": "Dactolisib + OSI-027; first compound 0.06325 µM", "result": 0.334},
      {"measurement": "relative viability", "setting": "Dactolisib + OSI-027; first compound 0.2 µM", "result": 0.3},
      {"measurement": "relative viability", "setting": "Dactolisib + Lapatinib; first compound 0.002 µM", "result": 0.879},
      {"measurement": "relative viability", "setting": "Dactolisib + Lapatinib; first compound 0.006325 µM", "result": 0.728},
      {"measurement": "relative viability", "setting": "Dactolisib + Lapatinib; first compound 0.02 µM", "result": 0.664},
      {"measurement": "relative viability", "setting": "Dactolisib + Lapatinib; first compound 0.06325 µM", "result": 0.687},
      {"measurement": "relative viability", "setting": "Dactolisib + Lapatinib; first compound 0.2 µM", "result": 0.4},
      {"measurement": "relative viability", "setting": "AZ505 + Foretinib; first compound 0.253 µM", "result": 0.704},
      {"measurement": "relative viability", "setting": "AZ505 + Foretinib; first compound 0.8 µM", "result": 0.635},
      {"measurement": "relative viability", "setting": "AZ505 + Foretinib; first compound 2.53 µM", "result": 0.569},
      {"measurement": "relative viability", "setting": "AZ505 + Foretinib; first compound 8 µM", "result": 0.698}
    ]},
    {"cell line": "H3255", "values": [
      {"measurement": "relative viability", "setting": "Dactolisib + Pemetrexed; first compound 0.002 µM", "result": 0.568},
      {"measurement": "relative viability", "setting": "Dactolisib + Pemetrexed; first compound 0.006325 µM", "result": 0.44},
      {"measurement": "relative viability", "setting": "Dactolisib + Pemetrexed; first compound 0.02 µM", "result": 0.558},
      {"measurement": "relative viability", "setting": "Dactolisib + Pemetrexed; first compound 0.06325 µM", "result": 0.464},
      {"measurement": "relative viability", "setting": "Dactolisib + Pemetrexed; first compound 0.2 µM", "result": 0.474},
      {"measurement": "relative viability", "setting": "Dactolisib + OSI-027; first compound 0.002 µM", "result": 0.724},
      {"measurement": "relative viability", "setting": "Dactolisib + OSI-027; first compound 0.006325 µM", "result": 0.469},
      {"measurement": "relative viability", "setting": "Dactolisib + OSI-027; first compound 0.02 µM", "result": 0.623},
      {"measurement": "relative viability", "setting": "Dactolisib + OSI-027; first compound 0.06325 µM", "result": 0.609},
      {"measurement": "relative viability", "setting": "Dactolisib + OSI-027; first compound 0.2 µM", "result": 0.488},
      {"measurement": "relative viability", "setting": "Dactolisib + Lapatinib; first compound 0.002 µM", "result": 0.329},
      {"measurement": "relative viability", "setting": "Dactolisib + Lapatinib; first compound 0.006325 µM", "result": 0.257},
      {"measurement": "relative viability", "setting": "Dactolisib + Lapatinib; first compound 0.02 µM", "result": 0.226},
      {"measurement": "relative viability", "setting": "Dactolisib + Lapatinib; first compound 0.06325 µM", "result": 0.237},
      {"measurement": "relative viability", "setting": "Dactolisib + Lapatinib; first compound 0.2 µM", "result": 0.225},
      {"measurement": "relative viability", "setting": "AZ505 + Foretinib; first compound 0.08 µM", "result": 0.81},
      {"measurement": "relative viability", "setting": "AZ505 + Foretinib; first compound 0.253 µM", "result": 1.05},
      {"measurement": "relative viability", "setting": "AZ505 + Foretinib; first compound 0.8 µM", "result": 0.924},
      {"measurement": "relative viability", "setting": "AZ505 + Foretinib; first compound 2.53 µM", "result": 0.872},
      {"measurement": "relative viability", "setting": "AZ505 + Foretinib; first compound 8 µM", "result": 1.19}
    ]}
  ]
}
